{
  "source": "patent US20060088545A1",
  "about": "“Use of inhibitors of the protease of the human immunodeficiency virus (hiv) to block cell migration and/or invasion, tissue infiltration and oedema for the therary of diseases associated therewith” (priority 2001, published 2006)",
  "tested_on": "angiogenesis induced by bFGF or VEGF in the chorioallantoic membrane",
  "procedure": "CAM assays were performed with 1 mm^3 sterilized gelatin sponges (Gelfoam; Upjohn Co, Kalamazoo, Mich.) adsorbed with bFGF or VEGF (1 μg or 100 ng, respectively) in 5 μl of PBS, and with buffer, HIV-PI (10 μM) or taxol (250 nM) (Bristol-Myers Squibb Co., Princeton, N.J.) as described (Ribatti et al, Int. J. Dev. Biol., 1996). CAM were examined daily until day 12 under an Olympus SZX9 stereomicroscope. Images (1024×1024 pixels) were captured at a distance of 2 mm from the edge of the sponge using a cooled digital CCD Hamamatsu ORCA camera (Hamamatsu Photonics Italia, Arese, Italy). Vessel number was quantified with the ImageProPlus 4.0 imaging software (Media Cybernetics, Silver Spring, Md.) in 3 randomly selected areas per egg ([…]).\nResults are expressed as the average number of vessels/mm^2±SD from the indicated number of CAM per experimental condition.",
  "data": [
    {"smiles": "CC(=O)O[C@H]1C(=O)[C@@]2(C)[C@H]([C@H](OC(=O)c3ccccc3)[C@]3(O)C[C@H](OC(=O)[C@H](O)[C@@H](NC(=O)c4ccccc4)c4ccccc4)C(C)=C1C3(C)C)[C@]1(OC(C)=O)CO[C@@H]1C[C@@H]2O", "note": "[Taxol, taxol]", "values": [
      {"measurement": "Average vessel (number/mm^2 ± SD)", "setting": "bFGF 1 μg, HIV-PI 10 μM, taxol 250 nM", "result": "7.71 ± 1.63", "unit": "number/mm^2"},
      {"measurement": "basal CAM vascularization", "setting": "drug administered alone", "result": "did not affect"},
      {"measurement": "toxicity in CAM", "setting": "in vivo", "result": "not associated with toxicity"}
    ]}
  ]
}
